Reference: ChEMBL document CHEMBL1909046, “DrugMatrix in vitro pharmacology data”

What was measured:
[1] = molecular target: T1, Type-2 angiotensin II receptor (Homo sapiens, UniProt P50052); type: cell-based; settings: cho-k1; further: in other assays of this panel Not Active means under 50% inhibition at 10 µM
T1 sequence (P50052 whole entry): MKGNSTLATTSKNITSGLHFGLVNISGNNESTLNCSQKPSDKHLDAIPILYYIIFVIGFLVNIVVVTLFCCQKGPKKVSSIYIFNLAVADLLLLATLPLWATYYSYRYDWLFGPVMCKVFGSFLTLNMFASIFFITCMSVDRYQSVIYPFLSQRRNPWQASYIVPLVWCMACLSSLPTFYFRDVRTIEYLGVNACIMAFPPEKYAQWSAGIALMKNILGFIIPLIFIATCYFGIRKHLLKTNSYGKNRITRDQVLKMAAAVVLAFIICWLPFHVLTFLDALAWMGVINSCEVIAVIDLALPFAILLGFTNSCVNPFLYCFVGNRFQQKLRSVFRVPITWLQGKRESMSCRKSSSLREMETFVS

[2] = DRUGMATRIX: Leukotriene, BLT (LTB4) radioligand binding (ligand: [3H]LTB4); type: cell membranes, Membrane; settings: u-937, Not Active = under 50% inhibition at 10 µM
[3] = molecular target: T2, Nitric oxide synthase, inducible (Mus musculus, UniProt P29477); parameters: species or system Escherichia coli;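 further: inhibition of iNOS enzyme activity measured with L-arginine as substrate; in other assays of this panel Not Active means under 50% inhibition at 10 µM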
T2 sequence (P29477 whole entry): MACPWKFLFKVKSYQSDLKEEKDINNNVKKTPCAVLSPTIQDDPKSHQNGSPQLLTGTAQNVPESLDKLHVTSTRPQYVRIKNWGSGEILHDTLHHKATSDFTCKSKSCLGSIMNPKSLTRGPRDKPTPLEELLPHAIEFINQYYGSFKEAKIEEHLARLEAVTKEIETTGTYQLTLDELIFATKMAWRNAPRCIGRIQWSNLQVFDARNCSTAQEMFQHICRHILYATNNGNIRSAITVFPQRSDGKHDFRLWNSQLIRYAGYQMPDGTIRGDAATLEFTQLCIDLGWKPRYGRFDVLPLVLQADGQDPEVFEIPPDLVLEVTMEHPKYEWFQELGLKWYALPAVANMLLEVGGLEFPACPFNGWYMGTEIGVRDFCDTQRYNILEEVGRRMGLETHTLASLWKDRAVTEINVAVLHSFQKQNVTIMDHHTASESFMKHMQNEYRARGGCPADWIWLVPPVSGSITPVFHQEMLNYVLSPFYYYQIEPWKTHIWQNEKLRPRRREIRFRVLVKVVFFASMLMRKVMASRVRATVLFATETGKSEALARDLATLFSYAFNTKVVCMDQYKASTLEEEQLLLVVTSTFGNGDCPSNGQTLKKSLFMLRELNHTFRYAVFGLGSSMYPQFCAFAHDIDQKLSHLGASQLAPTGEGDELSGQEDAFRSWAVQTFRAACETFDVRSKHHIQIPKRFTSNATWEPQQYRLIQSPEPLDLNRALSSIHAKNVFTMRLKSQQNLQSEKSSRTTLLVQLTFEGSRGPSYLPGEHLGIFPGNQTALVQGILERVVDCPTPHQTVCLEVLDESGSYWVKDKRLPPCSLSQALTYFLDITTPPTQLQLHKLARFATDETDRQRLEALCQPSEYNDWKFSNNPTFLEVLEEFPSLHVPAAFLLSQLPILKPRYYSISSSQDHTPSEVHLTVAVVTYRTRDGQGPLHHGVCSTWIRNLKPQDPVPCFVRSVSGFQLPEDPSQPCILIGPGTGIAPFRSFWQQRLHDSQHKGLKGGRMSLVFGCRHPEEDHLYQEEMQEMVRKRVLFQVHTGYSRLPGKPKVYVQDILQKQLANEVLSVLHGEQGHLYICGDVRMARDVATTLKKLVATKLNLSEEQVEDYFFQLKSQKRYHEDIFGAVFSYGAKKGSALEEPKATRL

[4] = molecular target: Delta-type opioid receptor (Homo sapiens, UniProt P41143); type: cell membranes, HEK293, Membrane; settings: hek293; further: in other assays of this panel Not Active means under 50% inhibition at 10 µM
[5] = DRUGMATRIX: Phosphodiesterase PDE4 enzyme inhibition (substrate: [3H]cAMP + cAMP); settings: u-937; Not Active = under 50% inhibition at 10 µM
Neutrophil elastase = molecular target: T3, Neutrophil elastase (Homo sapiens, UniProt P08246); type: tissue-based;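 further: inhibition of neutrophil elastase enzyme activity, measured with a p-nitroanilide-linked peptide substrate; in other assays of this panel Not Active means under 50% inhibition at 10 µM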
T3 sequence (P08246 whole entry): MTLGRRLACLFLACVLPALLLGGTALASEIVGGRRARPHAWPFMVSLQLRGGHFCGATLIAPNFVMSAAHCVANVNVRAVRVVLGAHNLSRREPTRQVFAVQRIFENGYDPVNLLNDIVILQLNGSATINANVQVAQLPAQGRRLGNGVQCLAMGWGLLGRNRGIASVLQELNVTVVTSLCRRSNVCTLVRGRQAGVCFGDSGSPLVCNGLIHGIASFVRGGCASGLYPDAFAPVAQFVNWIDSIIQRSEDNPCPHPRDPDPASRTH

Cytochrome P450 2C9 = Cytochrome P450 2C9 (Homo sapiens, UniProt P11712); settings: bti-tn-5b1-4; further: in other assays of this panel Not Active means under 50% inhibition at 10 µM
Chain of Cytochrome P450 2C9 (P11712 whole entry): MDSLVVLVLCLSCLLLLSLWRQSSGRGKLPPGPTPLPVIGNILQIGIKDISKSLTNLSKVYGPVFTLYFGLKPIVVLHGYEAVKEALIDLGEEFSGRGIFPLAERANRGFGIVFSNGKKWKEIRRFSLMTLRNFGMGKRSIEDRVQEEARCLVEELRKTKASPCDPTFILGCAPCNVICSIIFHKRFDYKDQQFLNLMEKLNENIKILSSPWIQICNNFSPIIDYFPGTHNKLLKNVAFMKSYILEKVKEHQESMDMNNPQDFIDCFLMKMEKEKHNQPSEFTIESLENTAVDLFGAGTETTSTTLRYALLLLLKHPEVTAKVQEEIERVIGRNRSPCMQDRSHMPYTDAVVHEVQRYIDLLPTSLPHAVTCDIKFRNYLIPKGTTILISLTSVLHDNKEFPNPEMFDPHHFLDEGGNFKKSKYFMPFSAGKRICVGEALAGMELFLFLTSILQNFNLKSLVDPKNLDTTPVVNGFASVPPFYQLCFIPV

Chain of Delta-type opioid receptor (P41143 whole entry): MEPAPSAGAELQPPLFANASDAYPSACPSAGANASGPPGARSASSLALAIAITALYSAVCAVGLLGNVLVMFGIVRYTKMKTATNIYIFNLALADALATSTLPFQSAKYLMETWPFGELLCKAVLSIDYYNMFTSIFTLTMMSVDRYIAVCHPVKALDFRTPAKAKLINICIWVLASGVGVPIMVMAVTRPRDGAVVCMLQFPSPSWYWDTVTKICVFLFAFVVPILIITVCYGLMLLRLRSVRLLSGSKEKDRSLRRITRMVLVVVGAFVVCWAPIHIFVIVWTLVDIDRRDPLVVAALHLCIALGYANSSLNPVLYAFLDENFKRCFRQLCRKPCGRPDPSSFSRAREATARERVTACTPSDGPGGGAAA

CC(=O)[C@]1(O)Cc2c(O)c3c(c(O)c2[C@@H](O[C@H]2C[C@H](N)[C@H](O)[C@H](C)O2)C1)C(=O)c1ccccc1C3=O [IDARUBICIN]
Not Active: IC50 [1] | IC50 [2] | Ki [2] | IC50 [3] | IC50 [4] | IC50 [5] | Ki [5] | IC50 (Neutrophil elastase) | IC50 (Cytochrome P450 2C9) | Ki (Cytochrome P450 2C9)

O=C1CN(/N=C/c2ccc([N+](=O)[O-])o2)C(=O)N1 [NITROFURANTOIN]
Not Active: IC50 [1] | IC50 [2] | Ki [2] | IC50 [3] | IC50 [4] | IC50 [5] | Ki [5] | IC50 (Neutrophil elastase) | IC50 (Cytochrome P450 2C9) | Ki (Cytochrome P450 2C9)

CARBOXYMETHYLCELLULOSE
Not Active: IC50 [1] | Ki [1] | IC50 [2] | Ki [2] | IC50 [3] | Ki [3] | IC50 [4] | Ki [4] | IC50 [5] | Ki [5] | IC50 (Neutrophil elastase) | Ki (Neutrophil elastase) | IC50 (Cytochrome P450 2C9) | Ki (Cytochrome P450 2C9)

c1ccc2sc(SSc3nc4ccccc4s3)nc2c1 [BENZOTHIAZYL DISULFIDE]
Not Active: IC50 [1] | IC50 [3] | IC50 [4] | IC50 [5] | Ki [5] | IC50 (Neutrophil elastase) | IC50 (Cytochrome P450 2C9) | Ki (Cytochrome P450 2C9)
1.3 µM: Ki ([2]; read-out: Ki)
5.1 µM: IC50 ([2]; read-out: IC50)

CC12CCC(CC1)C(C)(C)O2 [EUCALYPTOL]
Not Active: IC50 [1] | IC50 [2] | Ki [2] | IC50 [3] | IC50 [4] | IC50 [5] | Ki [5] | IC50 (Neutrophil elastase) | IC50 (Cytochrome P450 2C9) | Ki (Cytochrome P450 2C9)

CC(=O)Nc1ccc2c(c1)Cc1ccccc1-2 [2-ACETYLAMINOFLUORENE]
Not Active: IC50 [1] | IC50 [2] | Ki [2] | IC50 [3] | IC50 [4] | IC50 [5] | Ki [5] | IC50 (Neutrophil elastase) | IC50 (Cytochrome P450 2C9) | Ki (Cytochrome P450 2C9)

CCN1C[C@]2(COC)[C@H](O)C[C@H](OC)[C@@]34[C@@H]5C[C@@]6(O)[C@H](OC(=O)c7ccccc7)[C@@H]5[C@@](OC(C)=O)([C@@H]([C@H](OC)[C@H]23)[C@@H]14)[C@@H](O)[C@@H]6OC [ACONITINE]
Not Active: IC50 [1] | IC50 [2] | Ki [2] | IC50 [3] | IC50 [4] | IC50 [5] | Ki [5] | IC50 (Neutrophil elastase) | IC50 (Cytochrome P450 2C9) | Ki (Cytochrome P450 2C9)

COc1ccccc1OCCNCC(O)COc1cccc2[nH]c3ccccc3c12 (stereo not drawn) [CARVEDILOL]
Not Active: IC50 [1] | IC50 [2] | Ki [2] | IC50 [3] | IC50 [4] | IC50 [5] | Ki [5] | IC50 (Neutrophil elastase) | IC50 (Cytochrome P450 2C9) | Ki (Cytochrome P450 2C9)

CC(N)Cc1c[nH]c2ccc(OCc3cccs3)cc12 (stereo not drawn) [BW-723C86]
Not Active: IC50 [1] | IC50 [2] | Ki [2] | IC50 [3] | IC50 [4] | IC50 [5] | Ki [5] | IC50 (Neutrophil elastase) | IC50 (Cytochrome P450 2C9) | Ki (Cytochrome P450 2C9)

C=C(Cl)Cl [1,1-DICHLOROETHENE]
Not Active: IC50 [1] | IC50 [2] | Ki [2] | IC50 [3] | IC50 [4] | IC50 [5] | Ki [5] | IC50 (Neutrophil elastase) | IC50 (Cytochrome P450 2C9) | Ki (Cytochrome P450 2C9)

Nc1ccc(Cc2ccc(N)cc2)cc1
Not Active: IC50 [1] | IC50 [2] | Ki [2] | IC50 [3] | IC50 [4] | IC50 [5] | Ki [5] | IC50 (Neutrophil elastase) | IC50 (Cytochrome P450 2C9) | Ki (Cytochrome P450 2C9)

Nc1nc(N)c2nc(CNc3ccc(C(=O)N[C@@H](CCC(=O)O)C(=O)O)cc3)cnc2n1 [AMINOPTERIN]
Not Active: IC50 [1] | IC50 [2] | Ki [2] | IC50 [3] | IC50 [4] | IC50 [5] | Ki [5] | IC50 (Neutrophil elastase) | IC50 (Cytochrome P450 2C9) | Ki (Cytochrome P450 2C9)

COPPER(II) OXIDE
Not Active: IC50 [1] | Ki [1] | IC50 [2] | Ki [2] | IC50 [3] | Ki [3] | IC50 [4] | Ki [4] | IC50 [5] | Ki [5] | IC50 (Neutrophil elastase) | Ki (Neutrophil elastase) | IC50 (Cytochrome P450 2C9) | Ki (Cytochrome P450 2C9)

ClC1=C(Cl)[C@]2(Cl)[C@@H]3[C@@H]4C[C@@H]([C@H]5O[C@@H]45)[C@@H]3[C@@]1(Cl)C2(Cl)Cl [DIELDRIN]
Not Active: IC50 [1] | IC50 [2] | Ki [2] | IC50 [3] | IC50 [4] | IC50 [5] | Ki [5] | IC50 (Neutrophil elastase) | IC50 (Cytochrome P450 2C9) | Ki (Cytochrome P450 2C9)

CCN1CCN(c2cc3c(cc2F)c(=O)c(C(=O)O)cn3C2CC2)CC1 [ENROFLOXACIN]
Not Active: IC50 [1] | IC50 [2] | Ki [2] | IC50 [3] | IC50 [4] | IC50 [5] | Ki [5] | IC50 (Neutrophil elastase) | IC50 (Cytochrome P450 2C9) | Ki (Cytochrome P450 2C9)

OC[C@H]1O[C@@H]2O[C@H]3[C@H](O)[C@@H](O)[C@@H](O[C@H]4[C@H](O)[C@@H](O)[C@@H](O[C@H]5[C@H](O)[C@@H](O)[C@@H](O[C@H]6[C@H](O)[C@@H](O)[C@@H](O[C@H]7[C@H](O)[C@@H](O)[C@@H](O[C@H]8[C@H](O)[C@@H](O)[C@@H](O[C@H]1[C@H](O)[C@H]2O)O[C@@H]8CO)O[C@@H]7CO)O[C@@H]6CO)O[C@@H]5CO)O[C@@H]4CO)O[C@@H]3CO [BETADEX]
Not Active: IC50 [1] | IC50 [2] | Ki [2] | IC50 [3] | IC50 [4] | IC50 [5] | Ki [5] | IC50 (Neutrophil elastase) | IC50 (Cytochrome P450 2C9) | Ki (Cytochrome P450 2C9)

c1ccc(Cn2ccnc2)cc1
Not Active: IC50 [1] | IC50 [2] | Ki [2] | IC50 [3] | IC50 [4] | IC50 [5] | Ki [5] | IC50 (Neutrophil elastase) | IC50 (Cytochrome P450 2C9) | Ki (Cytochrome P450 2C9)

CCCCCCNC(=O)n1cc(F)c(=O)[nH]c1=O [CARMOFUR]
Not Active: IC50 [1] | IC50 [2] | Ki [2] | IC50 [3] | IC50 [4] | IC50 [5] | Ki [5] | IC50 (Neutrophil elastase) | IC50 (Cytochrome P450 2C9) | Ki (Cytochrome P450 2C9)
